Target: T1, α-amylase (α-salivary amylase)
T1 construct: gene AMY1A
Experiment: enzyme inhibition assay with soluble starch and […],5-dinitrosalicylic acid
Format: biochemical, Homo sapiens

## OC[C@H]1NC[C@H](O)[C@@H](O)[C@@H]1O [DNJ, 1-Deoxynojirimycin]
  α-Amylase Experiment / IC50: 22.69 µg/mL

— publication PMC12787591 (Nutrients, 2025)
